{"source": "the supplement of paper PMC10307832", "assay_in_all_cases": "relative viability (nuclei count vs DMSO), 5 days (fraction); higher = more cells survive", "key": {"A-427": {"tested_on": "A-427", "how_it_was_run": "(§1)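 Medians of duplicate plates are given as relative viability. That measure is the nuclei count in treated wells divided by the count in vehicle wells. Counts were taken on 4× images of lung cancer cell lines in 1536-well plates, 5 days after pin-tool dosing the day after seeding with one drug alone or a fixed anchor-drug dose plus five library-drug doses (not always all listed) in √10 steps.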"}, "COR-L 105": {"tested_on": "COR-L 105", "how_it_was_run": "as §1"}, "EKVX": {"tested_on": "EKVX", "how_it_was_run": "as §1"}, "EMC-BAC-2": {"tested_on": "EMC-BAC-2", "how_it_was_run": "as §1"}, "EPLC-272H": {"tested_on": "EPLC-272H", "how_it_was_run": "as §1"}, "HARA": {"tested_on": "HARA", "how_it_was_run": "as §1"}, "HCC-44": {"tested_on": "HCC-44", "how_it_was_run": "as §1"}, "LK-2": {"tested_on": "LK-2", "how_it_was_run": "as §1"}, "LU99A": {"tested_on": "LU99A", "how_it_was_run": "as §1"}, "NCI-H1734": {"tested_on": "NCI-H1734", "how_it_was_run": "as §1"}, "NCI-H1755": {"tested_on": "NCI-H1755", "how_it_was_run": "as §1"}, "NCI-H1792": {"tested_on": "NCI-H1792", "how_it_was_run": "as §1"}, "NCI-H1993": {"tested_on": "NCI-H1993", "how_it_was_run": "as §1"}, "NCI-H2405": {"tested_on": "NCI-H2405", "how_it_was_run": "as §1"}, "NCI-H358": {"tested_on": "NCI-H358", "how_it_was_run": "as §1"}, "NCI-H460": {"tested_on": "NCI-H460", "how_it_was_run": "as §1"}, "NCI-H596": {"tested_on": "NCI-H596", "how_it_was_run": "as §1"}, "NCI-H647": {"tested_on": "NCI-H647", "how_it_was_run": "as §1"}, "RERF-LC-KJ": {"tested_on": "RERF-LC-KJ", "how_it_was_run": "as §1"}}}
{"smiles": "Cc1csc(=NC2CCCCC2)n1/N=C/c1ccc(O)c(O)c1O", "note": "[MIM1] + C[C@]1(O)C[C@@H](c2nc(-c3ccc4ccc(-c5ccccc5)nc4c3)c3c(N)nccn32)C1 [Linsitinib] (partner 1 µM)", "values": [{"measurement": "relative viability", "setting": "A-427; first compound 0.2 µM", "value": 1.09}, {"measurement": "relative viability", "setting": "A-427; first compound 0.6325 µM", "value": 1.14}, {"measurement": "relative viability", "setting": "A-427; first compound 2 µM", "value": 1.11}, {"measurement": "relative viability", "setting": "A-427; first compound 6.325 µM", "value": 1.07}, {"measurement": "relative viability", "setting": "A-427; first compound 20 µM", "value": 0.505}, {"measurement": "relative viability", "setting": "COR-L 105; first compound 0.2 µM", "value": 0.899}, {"measurement": "relative viability", "setting": "COR-L 105; first compound 0.6325 µM", "value": 1.04}, {"measurement": "relative viability", "setting": "COR-L 105; first compound 2 µM", "value": 0.898}, {"measurement": "relative viability", "setting": "COR-L 105; first compound 6.325 µM", "value": 0.962}, {"measurement": "relative viability", "setting": "COR-L 105; first compound 20 µM", "value": 0.796}, {"measurement": "relative viability", "setting": "EKVX; first compound 0.2 µM", "value": 1.03}, {"measurement": "relative viability", "setting": "EKVX; first compound 0.6325 µM", "value": 0.867}, {"measurement": "relative viability", "setting": "EKVX; first compound 2 µM", "value": 0.958}, {"measurement": "relative viability", "setting": "EKVX; first compound 6.325 µM", "value": 0.631}, {"measurement": "relative viability", "setting": "EKVX; first compound 20 µM", "value": 0.667}, {"measurement": "relative viability", "setting": "EMC-BAC-2; first compound 0.2 µM", "value": 0.776}, {"measurement": "relative viability", "setting": "EMC-BAC-2; first compound 0.6325 µM", "value": 0.822}, {"measurement": "relative viability", "setting": "EMC-BAC-2; first compound 2 µM", "value": 0.784}, {"measurement": "relative viability", "setting": "EMC-BAC-2; first compound 6.325 µM", "value": 0.757}, {"measurement": "relative viability", "setting": "EMC-BAC-2; first compound 20 µM", "value": 0.328}, {"measurement": "relative viability", "setting": "EPLC-272H; first compound 0.2 µM", "value": 1.06}, {"measurement": "relative viability", "setting": "EPLC-272H; first compound 0.6325 µM", "value": 1.15}, {"measurement": "relative viability", "setting": "EPLC-272H; first compound 2 µM", "value": 1.17}, {"measurement": "relative viability", "setting": "EPLC-272H; first compound 6.325 µM", "value": 1.26}, {"measurement": "relative viability", "setting": "EPLC-272H; first compound 20 µM", "value": 0.988}, {"measurement": "relative viability", "setting": "HARA; first compound 0.2 µM", "value": 0.9}, {"measurement": "relative viability", "setting": "HARA; first compound 0.6325 µM", "value": 0.926}, {"measurement": "relative viability", "setting": "HARA; first compound 2 µM", "value": 0.909}, {"measurement": "relative viability", "setting": "HARA; first compound 6.325 µM", "value": 0.92}, {"measurement": "relative viability", "setting": "HARA; first compound 20 µM", "value": 0.187}, {"measurement": "relative viability", "setting": "HCC-44; first compound 0.2 µM", "value": 0.67}, {"measurement": "relative viability", "setting": "HCC-44; first compound 0.6325 µM", "value": 0.713}, {"measurement": "relative viability", "setting": "HCC-44; first compound 2 µM", "value": 0.555}, {"measurement": "relative viability", "setting": "HCC-44; first compound 6.325 µM", "value": 0.555}, {"measurement": "relative viability", "setting": "HCC-44; first compound 20 µM", "value": 0.141}, {"measurement": "relative viability", "setting": "LK-2; first compound 0.2 µM", "value": 0.801}, {"measurement": "relative viability", "setting": "LK-2; first compound 0.6325 µM", "value": 0.631}, {"measurement": "relative viability", "setting": "LK-2; first compound 2 µM", "value": 0.519}, {"measurement": "relative viability", "setting": "LK-2; first compound 6.325 µM", "value": 0.566}, {"measurement": "relative viability", "setting": "LK-2; first compound 20 µM", "value": 0.179}, {"measurement": "relative viability", "setting": "LU99A; first compound 0.2 µM", "value": 0.528}, {"measurement": "relative viability", "setting": "LU99A; first compound 0.6325 µM", "value": 0.57}, {"measurement": "relative viability", "setting": "LU99A; first compound 2 µM", "value": 0.489}, {"measurement": "relative viability", "setting": "LU99A; first compound 6.325 µM", "value": 0.545}, {"measurement": "relative viability", "setting": "LU99A; first compound 20 µM", "value": 0.284}, {"measurement": "relative viability", "setting": "NCI-H1734; first compound 0.2 µM", "value": 0.829}, {"measurement": "relative viability", "setting": "NCI-H1734; first compound 0.6325 µM", "value": 1.01}, {"measurement": "relative viability", "setting": "NCI-H1734; first compound 2 µM", "value": 0.853}, {"measurement": "relative viability", "setting": "NCI-H1734; first compound 6.325 µM", "value": 0.754}, {"measurement": "relative viability", "setting": "NCI-H1734; first compound 20 µM", "value": 0.422}, {"measurement": "relative viability", "setting": "NCI-H1755; first compound 0.2 µM", "value": 1.02}, {"measurement": "relative viability", "setting": "NCI-H1755; first compound 0.6325 µM", "value": 0.996}, {"measurement": "relative viability", "setting": "NCI-H1755; first compound 2 µM", "value": 1.03}, {"measurement": "relative viability", "setting": "NCI-H1755; first compound 6.325 µM", "value": 0.71}, {"measurement": "relative viability", "setting": "NCI-H1755; first compound 20 µM", "value": 0.724}, {"measurement": "relative viability", "setting": "NCI-H1792; first compound 0.2 µM", "value": 0.551}, {"measurement": "relative viability", "setting": "NCI-H1792; first compound 0.6325 µM", "value": 0.438}, {"measurement": "relative viability", "setting": "NCI-H1792; first compound 2 µM", "value": 0.481}, {"measurement": "relative viability", "setting": "NCI-H1792; first compound 6.325 µM", "value": 0.383}, {"measurement": "relative viability", "setting": "NCI-H1792; first compound 20 µM", "value": 0.503}, {"measurement": "relative viability", "setting": "NCI-H1993; first compound 0.2 µM", "value": 0.736}, {"measurement": "relative viability", "setting": "NCI-H1993; first compound 0.6325 µM", "value": 0.715}, {"measurement": "relative viability", "setting": "NCI-H1993; first compound 2 µM", "value": 0.63}, {"measurement": "relative viability", "setting": "NCI-H1993; first compound 6.325 µM", "value": 0.68}, {"measurement": "relative viability", "setting": "NCI-H1993; first compound 20 µM", "value": 0.646}, {"measurement": "relative viability", "setting": "NCI-H2405; first compound 0.2 µM", "value": 0.906}, {"measurement": "relative viability", "setting": "NCI-H2405; first compound 0.6325 µM", "value": 1.08}, {"measurement": "relative viability", "setting": "NCI-H2405; first compound 2 µM", "value": 0.946}, {"measurement": "relative viability", "setting": "NCI-H2405; first compound 6.325 µM", "value": 0.778}, {"measurement": "relative viability", "setting": "NCI-H2405; first compound 20 µM", "value": 0.742}, {"measurement": "relative viability", "setting": "NCI-H358; first compound 0.2 µM", "value": 0.703}, {"measurement": "relative viability", "setting": "NCI-H358; first compound 0.6325 µM", "value": 0.651}, {"measurement": "relative viability", "setting": "NCI-H358; first compound 2 µM", "value": 0.694}, {"measurement": "relative viability", "setting": "NCI-H358; first compound 6.325 µM", "value": 0.324}, {"measurement": "relative viability", "setting": "NCI-H358; first compound 20 µM", "value": 0.341}, {"measurement": "relative viability", "setting": "NCI-H460; first compound 0.2 µM", "value": 0.791}, {"measurement": "relative viability", "setting": "NCI-H460; first compound 0.6325 µM", "value": 0.783}, {"measurement": "relative viability", "setting": "NCI-H460; first compound 2 µM", "value": 0.582}, {"measurement": "relative viability", "setting": "NCI-H460; first compound 6.325 µM", "value": 0.287}, {"measurement": "relative viability", "setting": "NCI-H460; first compound 20 µM", "value": 0.022}, {"measurement": "relative viability", "setting": "NCI-H596; first compound 0.2 µM", "value": 0.989}, {"measurement": "relative viability", "setting": "NCI-H596; first compound 0.6325 µM", "value": 0.989}, {"measurement": "relative viability", "setting": "NCI-H596; first compound 2 µM", "value": 0.991}, {"measurement": "relative viability", "setting": "NCI-H596; first compound 6.325 µM", "value": 0.857}, {"measurement": "relative viability", "setting": "NCI-H596; first compound 20 µM", "value": 0.871}, {"measurement": "relative viability", "setting": "NCI-H647; first compound 0.2 µM", "value": 1.28}, {"measurement": "relative viability", "setting": "NCI-H647; first compound 0.6325 µM", "value": 1.07}, {"measurement": "relative viability", "setting": "NCI-H647; first compound 2 µM", "value": 1.32}, {"measurement": "relative viability", "setting": "NCI-H647; first compound 6.325 µM", "value": 0.807}, {"measurement": "relative viability", "setting": "NCI-H647; first compound 20 µM", "value": 0.868}, {"measurement": "relative viability", "setting": "RERF-LC-KJ; first compound 0.2 µM", "value": 0.81}, {"measurement": "relative viability", "setting": "RERF-LC-KJ; first compound 0.6325 µM", "value": 0.866}, {"measurement": "relative viability", "setting": "RERF-LC-KJ; first compound 2 µM", "value": 0.773}, {"measurement": "relative viability", "setting": "RERF-LC-KJ; first compound 6.325 µM", "value": 0.473}, {"measurement": "relative viability", "setting": "RERF-LC-KJ; first compound 20 µM", "value": 0.287}]}
